Test results published in patent US10392401B2, “Crystal form A of compound and preparation method thereof” (SHANGHAI INSTITUTE OF MATERIA MEDICA, CHINESE ACADEMY OF …, priority 2015, dated 2019).
Where two headings read alike, the source gives them in different places.

Experiments:
[1] = Pharmacokinetic study in rats; assay type: in vivo; settings: versus alogliptin
DPP IV [2] = target: T1, DPP IV (Mus musculus, UniProt P28843); test: Inhibition of DPP IV activity in normal mice plasma; assay type: in vivo
T1 construct: from tissue; host or cells: mouse plasma
T1 sequence (P28843 37-760 limits assumed): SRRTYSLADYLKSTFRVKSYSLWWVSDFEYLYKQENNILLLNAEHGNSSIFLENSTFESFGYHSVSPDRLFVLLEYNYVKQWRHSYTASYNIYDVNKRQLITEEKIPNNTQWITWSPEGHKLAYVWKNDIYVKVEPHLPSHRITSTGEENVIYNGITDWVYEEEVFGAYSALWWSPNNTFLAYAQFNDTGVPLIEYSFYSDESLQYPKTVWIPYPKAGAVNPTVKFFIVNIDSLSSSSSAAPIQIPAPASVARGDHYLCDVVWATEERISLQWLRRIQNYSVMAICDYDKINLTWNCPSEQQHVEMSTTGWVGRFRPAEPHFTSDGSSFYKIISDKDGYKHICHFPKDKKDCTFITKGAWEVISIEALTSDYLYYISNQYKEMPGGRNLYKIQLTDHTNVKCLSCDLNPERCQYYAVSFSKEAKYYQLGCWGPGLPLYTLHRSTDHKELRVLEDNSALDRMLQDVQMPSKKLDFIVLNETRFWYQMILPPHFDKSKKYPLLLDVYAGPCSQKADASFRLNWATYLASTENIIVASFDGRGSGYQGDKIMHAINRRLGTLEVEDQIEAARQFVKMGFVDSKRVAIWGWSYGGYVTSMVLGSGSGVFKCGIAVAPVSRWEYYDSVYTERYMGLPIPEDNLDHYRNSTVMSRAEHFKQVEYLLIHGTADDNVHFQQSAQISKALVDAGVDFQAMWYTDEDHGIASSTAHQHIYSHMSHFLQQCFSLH

ICR mice = test: Acute toxicity test in ICR mice; assay type: in vivo; settings: 300 mg/kg group
ob/ob mice = test: Chronic administration to ob/ob mice, fasting blood glucose; assay type: in vivo
DPP IV [3] = target: DPP IV (Homo sapiens, UniProt P27487); test: DPP IV inhibitory activity and selectivity in vitro; assay type: biochemical
Chain of DPP IV (Homo sapiens, UniProt P27487) (P27487 whole entry, species assumed): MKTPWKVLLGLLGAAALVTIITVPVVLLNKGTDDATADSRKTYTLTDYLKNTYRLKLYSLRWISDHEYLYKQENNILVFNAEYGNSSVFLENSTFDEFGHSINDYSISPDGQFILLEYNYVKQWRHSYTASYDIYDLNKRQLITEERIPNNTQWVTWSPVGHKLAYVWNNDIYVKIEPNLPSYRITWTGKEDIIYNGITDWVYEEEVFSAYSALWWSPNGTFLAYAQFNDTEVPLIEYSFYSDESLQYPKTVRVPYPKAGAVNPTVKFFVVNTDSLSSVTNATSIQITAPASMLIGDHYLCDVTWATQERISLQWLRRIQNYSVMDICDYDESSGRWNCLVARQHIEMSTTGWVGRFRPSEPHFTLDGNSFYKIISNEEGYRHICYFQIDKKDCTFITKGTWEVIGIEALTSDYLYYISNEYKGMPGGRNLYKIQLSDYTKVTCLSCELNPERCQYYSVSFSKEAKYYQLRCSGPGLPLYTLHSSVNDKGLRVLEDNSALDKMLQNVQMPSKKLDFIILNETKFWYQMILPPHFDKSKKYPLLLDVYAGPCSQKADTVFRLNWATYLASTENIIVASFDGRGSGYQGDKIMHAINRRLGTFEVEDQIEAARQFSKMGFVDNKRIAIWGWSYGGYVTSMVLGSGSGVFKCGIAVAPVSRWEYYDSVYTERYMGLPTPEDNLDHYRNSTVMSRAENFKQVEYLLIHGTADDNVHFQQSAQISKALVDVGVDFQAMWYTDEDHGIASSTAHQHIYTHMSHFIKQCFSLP

normal ICR mice = test: Oral glucose tolerance in normal ICR mice; assay type: in vivo
[4] = system: gene-deficient db/db mice; test: Chronic administration to gene-deficient db/db mice, fasting blood glucose; assay type: in vivo
[5] = Pharmacokinetic study in dogs; assay type: in vivo; settings: versus alogliptin
DPP IV [6] = target: T2, DPP IV (Rattus norvegicus, UniProt P14740); test: Inhibition of DPP IV activity in rat plasma; assay type: in vivo
T2 construct: from tissue; host or cells: rat plasma
T2 sequence (P14740 37-767 limits assumed): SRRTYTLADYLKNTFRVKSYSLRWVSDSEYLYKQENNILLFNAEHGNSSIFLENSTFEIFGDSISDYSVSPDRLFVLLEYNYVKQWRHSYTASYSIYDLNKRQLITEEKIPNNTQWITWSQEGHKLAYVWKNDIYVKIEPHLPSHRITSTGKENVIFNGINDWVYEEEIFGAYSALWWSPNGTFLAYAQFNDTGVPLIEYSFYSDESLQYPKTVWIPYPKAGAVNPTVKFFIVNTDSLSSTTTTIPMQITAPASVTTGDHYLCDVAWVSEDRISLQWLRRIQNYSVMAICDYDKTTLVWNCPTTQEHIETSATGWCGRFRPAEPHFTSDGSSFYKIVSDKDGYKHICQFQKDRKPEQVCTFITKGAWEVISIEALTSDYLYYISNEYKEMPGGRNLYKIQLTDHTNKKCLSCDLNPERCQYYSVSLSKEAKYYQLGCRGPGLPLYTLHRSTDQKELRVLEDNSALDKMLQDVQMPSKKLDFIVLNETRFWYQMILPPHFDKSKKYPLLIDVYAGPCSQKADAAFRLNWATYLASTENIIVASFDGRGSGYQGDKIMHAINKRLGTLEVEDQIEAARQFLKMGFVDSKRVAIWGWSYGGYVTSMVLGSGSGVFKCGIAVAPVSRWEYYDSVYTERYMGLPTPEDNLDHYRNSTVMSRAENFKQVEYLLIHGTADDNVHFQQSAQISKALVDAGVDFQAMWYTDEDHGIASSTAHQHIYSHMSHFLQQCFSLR

Rat = test: Subacute toxicity test in Rat; assay type: in vivo; settings: oral, 150 mg/kg group
[7] = Oral absorption and bioavailability compared with amorphous powder; assay type: in vivo; settings: versus amorphous powder
[8] = Oral hypoglycemic activity compared with amorphous powder; assay type: in vivo; settings: orally administered; versus amorphous powder
[9] = Solubility compared with amorphous powder; assay type: physicochemical; settings: versus amorphous powder
[10] = Hygroscopicity analysis (DVS); assay type: physicochemical
Protocol: Dynamic vapor absorption (DVS) test/water absorption test is conducted by rapidly measuring the increase and loss of the moisture in the sample caused by flow carrier gas with setted relative humidity (RH). The sample is placed on a digital microbalance with high sensitivity and high stability at a self-suspension state, and then by measuring the increase/decrease of the material mass so as to measure the adsorption/desorption of water vapor, thereby determining the hygroscopicity of the sample.
In the present invention, the test parameters for DVS are as follows: Instrument type: SMS DVS Intrinsic; Non-hydrate: 0 to 95%-0% RH; Temperature: 25° C.; Hydrate: 40 to 95%-0% RH; Temperature: 25° C.

[11] = Stability of the crystal form; assay type: physicochemical
[12] = versus positive control alogliptin

For `COC(=O)c1cc2nc(N3CCC[C@@H](N)C3)n(Cc3ccccc3C#N)c(=O)c2s1` [Formula I, (R)-methyl-2-(3-aminopiperidin-1-yl)-3-(2-cyanobenzyl)-4-carbonyl-3,4-dihydroth iophene[3,2-d] pyrimidine-6-carboxylic acid], the “AUC0-t compared with alogliptin” value [1] was “superior”, the “half-life compared with alogliptin” value [1] was “superior” and the “DPP IV activity in plasma” value (DPP IV [2]) was “effectively inhibit”. For the same compound, the “DPP IV inhibitory activity compared with alogliptin” value (DPP IV [2]; versus alogliptin) was “superior”, the “death in acute toxicity test” value (ICR mice) was “no death” and the fasting blood glucose (ob/ob mice) was “effectively reduce”. For the same compound, the “fasting blood glucose reduction compared with alogliptin” value (ob/ob mice; [12]) was “superior”, the “type of DPP IV inhibition” value (DPP IV [3]) was “selective and reversible competitive” and the inhibitory activity (DPP IV [3]; in vitro) was “nanomolar level”. The “inhibitory activity and selectivity in vitro compared with sitagliptin and vildagliptin” value (DPP IV [3]; in vitro, versus listed drugs sitagliptin and vildagliptin) was “superior”, the “effective dose for increasing oral glucose tolerance” value (normal ICR mice; dose-dependent) was 0.1 mg/kg and the “effect on oral glucose tolerance compared with alogliptin” value (normal ICR mice; versus alogliptin) was “superior”. The fasting blood glucose [4] was “can reduce”, the “fasting blood glucose reduction compared with alogliptin” value [4, 12] was “comparable” and the “AUC0-t compared with alogliptin” value [5] was “superior”. For the same compound, the “half-life compared with alogliptin” value [5] was “superior”, the “DPP IV activity in plasma” value (DPP IV [6]) was “effectively inhibit” and the “DPP IV inhibitory activity compared with alogliptin” value (DPP IV [6]; versus alogliptin) was “superior”. For the same compound, the “toxicity in subacute toxicity test” value (Rat) was “no obvious toxicity”.

In the case of `COC(=O)c1cc2nc(N3CCC[C@@H](N)C3)n(Cc3ccccc3C#N)c(=O)c2s1` [crystal form A, (R)-methyl-2-(3-aminopiperidin-1-yl)-3-(2-cyanobenzyl)-4-carbonyl-3,4-dihydrothiop hene[3,2-d] pyrimidine-6-carboxylic acid], the “oral absorption ability compared with amorphous powder” value [7] is reported as “enhance oral absorption ability”, the “hypoglycemic activity compared with amorphous powder” value [8] is reported as “better” and the “solubility compared with amorphous powder” value [9] is reported as “improve solubility”. The hygroscopicity [10] was “less than 1%”, the moisture content ([10]; 40% RH) was 0.26% and the moisture absorbed ([10]; 65% RH) was 0.42%. The moisture absorbed ([10]; 80% RH) was 0.57%, the “hygroscopicity (DVS)” value ([10]; FIG. 5, crystal of Example 1) was “slight hygroscopicity” and the “variation range of humidity” value ([10]; range of conventional storage humidity) was “smaller than 2.0%”. For the same compound, the hygroscopicity ([10]; relative humidity RH less than 50%) was “less than 0.3%”, the “stability, in particular thermal stability” value ([11]; compared with the prior art) was “better stability” and the degradability ([11]; conventional conditions) was “not easily degradable”.
